Measurements as given in patent US20190054054A1, “Methods reducing or preventing oxidation of high density lipoprotein (HDL)” (Amarin Pharmaceuticals Ireland Limited, priority 2017, published 2019).

Assays:
human sdLDL = experiment: Copper-induced sdLDL oxidation, TBARS (Example 7); type: biochemical
Protocol: (§1) An experiment to study the antioxidant effect of EPA in LDL and small dense […] performed. […] Fenofibrate, gemfibrozil, and niacin were purchased from Sigma-Aldrich. […] Vitamin E was also incubated with sample aliquots as a positive control.

human LDL = experiment: Copper-induced oxidation of unfractionated LDL, TBARS (Example 7); type: biochemical
Protocol: as §1

[1] = test system: rat renal glomerular endothelial cells; experiment: NO and ONOO^− release ex vivo from rat glomerular endothelial cells exposed to oxLDL and high glucose (Example 13); type: cell-based; settings: oxLDL 11 mg/dL and glucose 300 mg/dL; treatment 1 hr at 10.0 μM; versus vehicle
Protocol: Healthy male Wistar Kyoto (WKY) rats, aged 7-9 weeks and weighing 250±20 g, were obtained from inbred colonies (National Institutes of Health, Bethesda, Md.). Animals were housed in a controlled environment that provided food and water ad libitum prior to the study. […] Animals were sacrificed and tissue samples obtained immediately for experimentation. All procedures were conducted in accordance with standard Institutional Animal Care and Use Committee guidelines and conformed to the Guide for the Care and Use of Laboratory Animals published by the US National Institutes of Health.
EPA and DHA were purchased from Sigma-Aldrich (St. Louis, Mo.) and solubilized in ethanol to 1.0 mM under nitrogen atmosphere. […] The calcium ionophore (Cal), A23187, was purchased from Sigma-Aldrich and prepared in aqueous buffer to 1.0 mM. All test compounds were further diluted in ethanol or aqueous buffer as needed.
Venous blood from healthy normolipidemic volunteers was collected into Na-EDTA (1 mg/mL blood) vacuum tubes after a 12-hour fast. […] The LDL fraction was dialyzed for 96 hours against PBS containing 0.3 mM EDTA and stored at 4° C. until experimental use.
LDL was oxidized according to the methods of Huber et al. 16 Briefly, the purified LDL fraction was dialyzed against Tris/NaCl Buffer (50 mM Tris in 0.15 M NaCl, pH 8.0) to remove EDTA. Additional buffer was added to adjust the protein concentration to 30 mg/mL. LDL oxidation was initiated with 20 μM CuSO4 and monitored spectrophotometrically (234 nm) over a period of 24 hours until complete. The oxLDL was then dialyzed at 4° C. with 4 L Tris buffer, filtered with a 0.22 µm filter, and stored under nitrogen at 4° C.
Immediately after sacrificing the rats, kidneys were removed, cut into […] sections and transferred to a separate organ chamber containing Dulbecco's phosphate buffered saline ([…]) and […] glucose at pH 7.4.
Concurrent measurements of NO and ONOO^− were performed on intact glomerular (cortical zone) endothelial cells using tandem electrochemical nanosensors, as previously described (FIG. 45).
The NO/ONOO^− nanosensor was positioned near the surface of the endothelial cells using a computer-controlled M3301 micromanipulator (x-y-z resolution of 0.2 μm) and microscope (both from World Precision Instruments, Berlin, Germany) fitted with a CD camera. Each analyte was measured from amperograms and standard calibration curves collected under maximum current. […] After establishing a background current, maximal NO and ONOO^− release was induced by injecting Cal into the organ chamber using a nanoinjector (World Precision Instruments, Berlin Germany). Changes in current (proportional to the molar concentrations of NO or ONOO^− released) were monitored continuously immediately following Cal stimulation.
Data are presented as mean+standard deviation (SD) for (N) separate samples or experiments. Differences between groups were analyzed using the unpaired, two-tailed Student's t-test (for comparisons between only two groups) or ANOVA followed by Student-Newman-Keuls multiple comparisons post hoc analysis (for comparisons between three or more groups). Only differences with probability values less than 0.05 were considered significant.

[2] = Glucose-induced membrane lipid peroxidation (LOOH, CHOD-iodide assay) in DLPC/cholesterol vesicles (Examples 4 and 5); type: biochemical; settings: each at 1.0 μM; glucose 200 mg/dL; 96 hours
Protocol: Vitamin E (α-tocopherol) was also purchased from Sigma-Aldrich and prepared in ethanol at 1.0 mM (e=[…] at 294 nm) just prior to experimental use. […] All test compounds were further diluted in ethanol or aqueous buffer as needed. Glucose was prepared in saline buffer (0.5 mM HEPES, 154 mM NaCl, pH 7.3) at 11.0 mM (200 mg/dL). CHOD-iodide color reagent (stock) was prepared, with slight modification, as described by from El-Saadani et al. (J. […] Samples were shell-dried under nitrogen gas and placed under vacuum for 1 h to remove residual solvent. […] Lipid suspensions were then vortexed for 3 min at ambient temperature to form MLVs. All MLV samples were subjected to time-dependent autoxidation by incubating at 37° C. in an uncovered, shaking water bath. This method allows lipid peroxidation to occur gradually without requiring the use of exogenous initiators. Small aliquots (5-100 μL) of each sample were removed, immediately following MLV preparation (0 hour) and after exposing samples to oxidative conditions for 72 or 96 hour, and combined with 1.0 mL of activated CHOD-iodide color reagent. Aliquot volume was reduced with each successive time point to ensure that spectrophotometric readings were within the optimal adsorption range. Test samples were covered and incubated in darkness at room temperature for at least 4 hr. Sample absorbances were then measured against a CHOD blank at 365 nm using a Beckman DU-640 spectrophotometer. The CHOD colorimetric assay is based on the oxidation of iodide (I^−) by lipid hydroperoxide (LOOH) to form triiodide (I3^−), the quantity of which is directly proportional to the amount of LOOH present in the lipid sample. The molar absorptivity (ε) of I3^− is 2.46×10^4 M^−1 cm^−1 at 365 nm. An experiment was conducted to compare the ability of EPA to prevent lipid hydroperoxide formation in model membranes treated with glucose to two other 20-carbon fatty acids: eicosanoic acid (“EA,” also referred to as arachidic acid, C20:0) and eicosatrienoic acid (“ETE,” C20:3, n-3). All MLV samples were subjected to time-dependent autoxidation by incubating at 37° C. in an uncovered, shaking water bath. This method allows lipid peroxidation to occur gradually without requiring the use of exogenous initiators. Small aliquots (5-100 μL) of each sample were removed, immediately following MLV preparation (0 hr) and after exposing samples to oxidative conditions for 72 or 96 hr, and combined with 1.0 mL of activated CHOD-iodide color reagent. Aliquot volume was reduced with each successive time point to ensure that spectrophotometric readings were within the optimal adsorption range. Test samples were covered and incubated in darkness at room temperature for at least 4 hr. Sample absorbances were then measured against a CHOD blank at 365 nm using a Beckman DU-640 spectrophotometer. The CHOD colorimetric assay is based on the oxidation of iodide (I^−) by lipid hydroperoxide (LOOH) to form triiodide (I3^−), the quantity of which is directly proportional to the amount of LOOH present in the lipid sample. The molar absorptivity (ε) of I3^− is 2.46×10^4 M^−1 cm^−1 at 365 nm.

[3] = 10 mg, administered for 12 weeks; cited from earlier work
[4] = 80 mg for 16 weeks; 2,341 patients; cited from earlier work
HMG-CoA reductase = biological target: T1, HMG-CoA reductase (Homo sapiens, UniProt P04035); settings: metabolized by hepatic cytochrome P450; cited from earlier work
T1 sequence (P04035 1-888): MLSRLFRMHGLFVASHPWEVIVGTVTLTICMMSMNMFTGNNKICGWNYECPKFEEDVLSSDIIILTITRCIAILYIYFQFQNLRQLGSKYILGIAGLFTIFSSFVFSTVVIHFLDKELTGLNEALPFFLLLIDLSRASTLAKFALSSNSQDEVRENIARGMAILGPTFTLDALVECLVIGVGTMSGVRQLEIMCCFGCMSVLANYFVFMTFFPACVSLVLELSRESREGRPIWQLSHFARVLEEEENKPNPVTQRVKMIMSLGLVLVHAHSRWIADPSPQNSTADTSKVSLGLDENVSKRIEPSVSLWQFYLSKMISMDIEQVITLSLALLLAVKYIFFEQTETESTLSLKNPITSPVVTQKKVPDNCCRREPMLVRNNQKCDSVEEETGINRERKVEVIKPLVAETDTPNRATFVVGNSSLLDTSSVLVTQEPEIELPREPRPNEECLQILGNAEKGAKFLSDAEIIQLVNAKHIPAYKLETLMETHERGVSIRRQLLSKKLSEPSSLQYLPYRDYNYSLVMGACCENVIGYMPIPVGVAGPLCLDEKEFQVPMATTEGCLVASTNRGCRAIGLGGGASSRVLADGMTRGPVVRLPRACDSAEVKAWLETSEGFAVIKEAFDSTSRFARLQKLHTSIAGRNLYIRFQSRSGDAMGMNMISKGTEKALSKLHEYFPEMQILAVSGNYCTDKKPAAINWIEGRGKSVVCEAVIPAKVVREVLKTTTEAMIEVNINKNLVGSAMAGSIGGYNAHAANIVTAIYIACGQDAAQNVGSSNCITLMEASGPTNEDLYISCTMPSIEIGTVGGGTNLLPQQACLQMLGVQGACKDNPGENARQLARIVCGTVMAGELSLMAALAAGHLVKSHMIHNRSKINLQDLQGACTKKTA

Compound	inhibition of sdLDL oxidation as compared to vehicle (human sdLDL; 1.0 μM (each agent), 1 hr)	inhibition of sdLDL oxidation as compared to vehicle (human sdLDL; ATM 0.5 μM, alone or in combination with EPA 1.0 μM, 1 hr)	inhibition of sdLDL oxidation (human sdLDL; ATM at the highest dose, 1 hr)	effect on unfractionated LDL oxidation, dose dependence (human LDL; 1 hour)	increase in NO release [1]	reduction of ONOO^− release [1]	antioxidant effect, separate treatments [2]	circulating levels of chlorotyrosine, nitrotyrosine, and dityrosine [3]	antioxidant activity, separately (human sdLDL; 10.0 μM, sdLDL)	inhibition of sdLDL oxidation as compared to vehicle (human sdLDL; each agent at 10.0 μM, 1 hour (FIG. 17))	levels of oxidized lipids associated with all apoB100-containing lipid particles [4]	antioxidant activity, separately (human LDL; 10.0 μM, unfractionated LDL)	share of circulating HMG-CoA reductase inhibitory activity accounted for by the active metabolites (HMG-CoA reductase)
CC(C)c1c(C(=O)Nc2ccccc2O)c(-c2ccccc2)c(-c2ccc(F)cc2)n1CC[C@@H](O)C[C@@H](O)CC(=O)O [ATM, Atorvastatin ortho-(o-) hydroxy (active) metabolite]	18±5%	5±5%	90±2%	significant and dose-dependent inhibition of unfractionated LDL oxidation beginning at 1.0 μM	205%	25%	separate and potent antioxidant effects	–	–	–	–	–	–
CC(C)c1c(C(=O)Nc2ccccc2)c(-c2ccccc2)c(-c2ccc(F)cc2)n1CC[C@@H](O)C[C@@H](O)CC(=O)O [atorvastatin]	–	–	–	–	–	–	–	significantly reduce circulating levels of chlorotyrosine, nitrotyrosine, and dityrosine	did not have any significant antioxidant activity	0.1±7%	significant reduction in levels of oxidized lipids	did not have any significant antioxidant activity	approximately 70%
